# Values joined by “and” are separate entries in the source; they are usually repeats but may differ in a detail not shown here. Identical values can stand only once.
# Key:
# [1] = tested on: HIV virus, ROJO in PBMC; assay: Reverse transcriptase activity against ROJO in PBMC; assay type: cell-based; parameters: Reverse Transcriptase Activity, Sample 1-3 / Reverse Transcriptase Activity, Mean: unit not given here; settings: for Reverse Transcriptase Activity, Sample 1-3: individual samples
# [2] = tested on: Chronic HIV-1 infected cells U1; assay: Chronic HIV study, HIV replication in monocytes (U1 cells); assay type: cell-based
# Protocol: (§1) Chronic HIV-1 infected cells U1 were derived from an acute HIV-1 infection of the promonocytic cell line, U937. The chronic HIV-1 infected cells, ACH-2 were derived from an acute HIV-1 infection of the T cell line, A3.01.
# (§2) These cells were cultured in medium and the phorbol ester, PMA. PMA causes the cells (both U1 and ACH-2) to be activated and not divide but it also causes the U-1 cells to differentiate. […] Cell viability was measured when these cell lines were treated with the test compound.
# (§3) Both cell lines constituitively produce a small amount of HIV-1. ACH-2 cell lines tend to produce more HIV-1 than U1 cells as shown by p-24 ELISA. When either cell line is cultured in the presence of PMA there is an increase in the quantity of HIV-1 produced as measured by the p-24 antigen ELISA.
# (§4) In addition, the number of […] positive HIV mRNA expressing cells per microscopic field is measured. Comparisons can be made from these numbers since the same number of cells were adhered to the glass slides for each drug concentration (10×10^6 cells/ml).
# [3] = tested on: chronic HIV-1 infected cells, ACH-2; assay: Chronic HIV study, T-cell HIV replication (ACH-2 cells); assay type: cell-based; settings: increase, not suppression
# Protocol: as §1, §2, §3, §4
# [4] = tested on: HIV; assay: microbe, parasite or virus in culture; assay type: cell-based; settings: in vitro acute model
# [5] = tested on: PBMC; assay: Toxicity values, XTT-based evaluation (cell titer O.D.), ROJO in PBMC; settings: for Toxicity Values (Cell titer), Sample 1-3: individual samples
smiles,measurement,setting,value
"COC(=O)Nc1nc2ccccc2[nH]1 [Carbendazim, 2-(methoxycarbonylamino)benzimidazole]","Reverse Transcriptase Activity, % virus control",[1]; 0.01 μg/ml,110.4%
same,"Reverse Transcriptase Activity, Mean",[1]; 0.01 μg/ml,26107
same,"Reverse Transcriptase Activity, Sample 1-3",[1]; 0.01 μg/ml,24174 and 32124 and 22024
same,"Reverse Transcriptase Activity, % virus control",[1]; 0.032 μg/ml,96.6%
same,"Reverse Transcriptase Activity, Mean",[1]; 0.032 μg/ml,22851
same,"Reverse Transcriptase Activity, Sample 1-3",[1]; 0.032 μg/ml,23225 and 17108 and 19000
same,"Reverse Transcriptase Activity, % virus control",[1]; 0.1 μg/ml,74.1%
same,"Reverse Transcriptase Activity, Mean",[1]; 0.1 μg/ml,17513
same,"Reverse Transcriptase Activity, Sample 1-3",[1]; 0.1 μg/ml,1394.0 and 16747 and 12569
same,"Reverse Transcriptase Activity, % virus control",[1]; 0.32 μg/ml,47.1%
same,"Reverse Transcriptase Activity, Mean",[1]; 0.32 μg/ml,11143
same,"Reverse Transcriptase Activity, Sample 1-3",[1]; 0.32 μg/ml,200 and 8787 and 11249
same,"Reverse Transcriptase Activity, % virus control",[1]; 1 μg/ml,3.7%
same,"Reverse Transcriptase Activity, Mean",[1]; 1 μg/ml,885.3
same,"Reverse Transcriptase Activity, Sample 1-3",[1]; 1 μg/ml,1394 and 685.0 and 577.0
same,"Reverse Transcriptase Activity, % virus control",[1]; 3.2 μg/ml,0.6%
same,"Reverse Transcriptase Activity, Mean",[1]; 3.2 μg/ml,138.7
same,"Reverse Transcriptase Activity, Sample 1-3",[1]; 3.2 μg/ml,200 and 100 and 116
same,"Reverse Transcriptase Activity, % virus control",[1]; 10 μg/ml,0.6%
same,"Reverse Transcriptase Activity, Mean",[1]; 10 μg/ml,153.3
same,"Reverse Transcriptase Activity, Sample 1-3",[1]; 10 μg/ml,136 and 216 and 108
same,"Reverse Transcriptase Activity, % virus control",[1]; 32 μg/ml,0.6%
same,"Reverse Transcriptase Activity, Mean",[1]; 32 μg/ml,130.7
same,"Reverse Transcriptase Activity, Sample 1-3",[1]; 32 μg/ml,124 and 180 and 88.0
same,"Reverse Transcriptase Activity, % virus control",[1]; 100 μg/ml,0.5%
same,"Reverse Transcriptase Activity, Mean",[1]; 100 μg/ml,122.7
same,"Reverse Transcriptase Activity, Sample 1-3",[1]; 100 μg/ml,132 and 84.0 and 152.0
same,suppressed replication in the HIV monocytes,[2],9%
same,T-cell HIV replication was increased,[3],44%
same,inhibition at 4 µg/mL,"[4]; Human immunodeficiency virus 1, at 4 μg/ml, read-out: inhibited viral replication",100%
same,"Toxicity Values (Cell titer), Mean",[5]; 0.01 μg/ml,1.138 O.D. @ 490/650 nm
same,"Toxicity Values, % cell control",[5]; 0.01 μg/ml,109.9%
same,"Toxicity Values (Cell titer), Sample 1-3",[5]; 0.01 μg/ml,1.115 O.D. @ 490/650 nm and 1.180 O.D. @ 490/650 nm and 1.118 O.D. @ 490/650 nm
same,"Toxicity Values (Cell titer), Mean",[5]; 0.032 μg/ml,1.182 O.D. @ 490/650 nm
same,"Toxicity Values, % cell control",[5]; 0.032 μg/ml,114.2%
same,"Toxicity Values (Cell titer), Sample 1-3",[5]; 0.032 μg/ml,1.143 O.D. @ 490/650 nm and 1.198 O.D. @ 490/650 nm and 1.204 O.D. @ 490/650 nm
same,"Toxicity Values (Cell titer), Mean",[5]; 0.1 μg/ml,1.157 O.D. @ 490/650 nm
same,"Toxicity Values, % cell control",[5]; 0.1 μg/ml,111.8%
same,"Toxicity Values (Cell titer), Sample 1-3",[5]; 0.1 μg/ml,1.145 O.D. @ 490/650 nm and 1.080 O.D. @ 490/650 nm and 1.246 O.D. @ 490/650 nm
same,"Toxicity Values (Cell titer), Mean",[5]; 0.32 μg/ml,1.049 O.D. @ 490/650 nm
same,"Toxicity Values, % cell control",[5]; 0.32 μg/ml,101.4%
same,"Toxicity Values (Cell titer), Sample 1-3",[5]; 0.32 μg/ml,1.031 O.D. @ 490/650 nm and 1.050 O.D. @ 490/650 nm and 1.067 O.D. @ 490/650 nm
same,"Toxicity Values (Cell titer), Mean",[5]; 1 μg/ml,1.004 O.D. @ 490/650 nm
same,"Toxicity Values, % cell control",[5]; 1 μg/ml,97.0%
same,"Toxicity Values (Cell titer), Sample 1-3",[5]; 1 μg/ml,1.019 O.D. @ 490/650 nm and 1.003 O.D. @ 490/650 nm and 0.991 O.D. @ 490/650 nm
same,"Toxicity Values (Cell titer), Mean",[5]; 3.2 μg/ml,0.992 O.D. @ 490/650 nm
same,"Toxicity Values, % cell control",[5]; 3.2 μg/ml,95.8%
same,"Toxicity Values (Cell titer), Sample 1-3",[5]; 3.2 μg/ml,1.013 O.D. @ 490/650 nm and 1.003 O.D. @ 490/650 nm and 0.959 O.D. @ 490/650 nm
same,"Toxicity Values (Cell titer), Mean",[5]; 10 μg/ml,0.944 O.D. @ 490/650 nm
same,"Toxicity Values, % cell control",[5]; 10 μg/ml,91.2%
same,"Toxicity Values (Cell titer), Sample 1-3",[5]; 10 μg/ml,1.001 O.D. @ 490/650 nm and 0.858 O.D. @ 490/650 nm and 0.973 O.D. @ 490/650 nm
same,"Toxicity Values (Cell titer), Mean",[5]; 32 μg/ml,0.845 O.D. @ 490/650 nm
same,"Toxicity Values, % cell control",[5]; 32 μg/ml,81.6%
same,"Toxicity Values (Cell titer), Sample 1-3",[5]; 32 μg/ml,0.864 O.D. @ 490/650 nm and 0.835 O.D. @ 490/650 nm and 0.836 O.D. @ 490/650 nm
same,"Toxicity Values (Cell titer), Mean",[5]; 100 μg/ml,0.807 O.D. @ 490/650 nm
same,"Toxicity Values, % cell control",[5]; 100 μg/ml,77.9%
same,"Toxicity Values (Cell titer), Sample 1-3",[5]; 100 μg/ml,0.839 O.D. @ 490/650 nm and 0.782 O.D. @ 490/650 nm and 0.799 O.D. @ 490/650 nm
c1ccc2[nH]c(-c3cscn3)nc2c1 [2-(4-thiazolyl)-1H-benzimidazole],inhibition at 60 µg/mL,"[4]; Human immunodeficiency virus 1, at 60 μg/ml, read-out: inhibited viral replication",98%
"Cc1cn([C@H]2C[C@H](N=[N+]=[N-])[C@@H](CO)O2)c(=O)[nH]c1=O [AZT, reference compound]","Reverse Transcriptase Activity, % virus control",[1]; 0.0004 μg/ml,101.5%
same,"Reverse Transcriptase Activity, Sample 1-3",[1]; 0.0004 μg/ml,1.043 and 0.966 and 1.143
same,"Reverse Transcriptase Activity, % virus control",[1]; 0.0013 μg/ml,101.4%
same,"Reverse Transcriptase Activity, % virus control",[1]; 0.004 μg/ml,98.5%
same,"Reverse Transcriptase Activity, Mean",[1]; 0.004 μg/ml,1.019
same,"Reverse Transcriptase Activity, Sample 1-3",[1]; 0.004 μg/ml,1.005 and 1.004 and 1.048
same,"Reverse Transcriptase Activity, % virus control",[1]; 0.013 μg/ml,101.2%
same,"Reverse Transcriptase Activity, Sample 1-3",[1]; 0.013 μg/ml,1.024 and 1.061 and 1.056
same,"Reverse Transcriptase Activity, % virus control",[1]; 0.04 μg/ml,0.7%
same,"Reverse Transcriptase Activity, Mean",[1]; 0.04 μg/ml,168
same,"Reverse Transcriptase Activity, Sample 1-3",[1]; 0.04 μg/ml,176 and 108 and 220
same,"Reverse Transcriptase Activity, % virus control",[1]; 0.13 μg/ml,0.5%
same,"Reverse Transcriptase Activity, Mean",[1]; 0.13 μg/ml,110.7
same,"Reverse Transcriptase Activity, Sample 1-3",[1]; 0.13 μg/ml,108 and 168 and 56
same,"Reverse Transcriptase Activity, % virus control",[1]; 0.4 μg/ml,0.7%
same,"Reverse Transcriptase Activity, Mean",[1]; 0.4 μg/ml,172
same,"Reverse Transcriptase Activity, Sample 1-3",[1]; 0.4 μg/ml,340 and 80 and 96
same,"Reverse Transcriptase Activity, % virus control",[1]; 1.3 μg/ml,.04%
same,"Reverse Transcriptase Activity, Mean",[1]; 1.3 μg/ml,93.3
same,"Reverse Transcriptase Activity, Sample 1-3",[1]; 1.3 μg/ml,68 and 120 and 92
same,"Reverse Transcriptase Activity, % virus control",[1]; 4 μg/ml,0.4%
same,"Reverse Transcriptase Activity, Mean",[1]; 4 μg/ml,98.7
same,"Reverse Transcriptase Activity, Sample 1-3",[1]; 4 μg/ml,108 and 104 and 84
same,inhibited viral replication,[4]; at 1 μg/ml,98%

# — patent publication US20030149088A1, “HIV treatment” (priority 2000, published 2003)
